In PMC8125976, “The Total Solubility of the Co-Solubilized PAHs with Similar Structures Indicated by NMR Chemical Shift” (Molecules, 2021):
≈ marks a conversion by molar mass, not a printed value.

How the values were obtained:
[1] = Solubilization of PAHs in Tween 80 micellar solutions (1H-NMR quantification, MSR); details: for MSR (molar solubilization ratio): Tween 80 10-50 mM in D2O, 25 °C; for Synergistic/inhibitory level (RΔMSR), in words: Tween 80
Excerpt: (§1) Molar solubilization ratio (MSR) is used to evaluate the solubilization potential of a surfactant, which is the molar concentration of the solubilized compound per mole of the surfactant concentration when the surfactant concentration is above CMC [37, 38], expressed by: (1) MSR=S−SCMC/C−CMC where S is the apparent solubility of a solute at the surfactant concentration of C, SCMC is the apparent solubility of the solute at CMC. Usually, the slope of the solubility with respect to the surfactant concentration can be considered to be MSR.
(§2) To compare the mutual effects of solutes in co-solubilization systems, the deviation ratio of MSR (RΔMSR) can be used to evaluate the effects of synergistic (RΔMSR > 0) or inhibitory (RΔMSR < 0), which can be expressed by: (2) RΔMSR%=MSRmixture−MSRsingle/MSRsingle×100% where MSRmixture and MSRsingle are the MSR values of solutes in the binary or ternary co-solubilization system and in the single solubilization system, respectively.
(§3) All reagents were used directly without further purification. First, a series of Tween 80 pure solutions at concentrations of 10, 20, 30, 40 and 50 mM and SDS pure solutions at concentrations of 40, 60, 80, 100 and 120 mM were prepared in D2O, respectively. These concentrations were set higher than their CMCs. The solubilization experiment was processed as follows: first, 8 equal 800 μL surfactant solutions at a certain surfactant concentration were injected into eight of 1.5 mL centrifuge cuitubes, respectively. One of them without the addition of PAHs was used as the blank control. […] Next, the surfactant solutions with PAHs solubilized were equilibrated on a reciprocating water bath oscillator at 200 rpm at 25 °C for 48 h. After equilibration, the above solutions were centrifuged at 10,000 rpm for 10 min. Finally, each of 600 μL of supernatant was transferred into 5 mm NMR tubes for further detection.
All NMR experiments were performed at 25 °C using a 500 MHz Agilent ProPulse NMR spectrometer (Agilent Technologies, Santa Clara, CA, USA) equipped with a 5 mm XYZ indirect detection probe and z-direction gradient coils with a maximum nominal gradient strength of 60 G cm^−1. The pulse excitation angle of 30 ° and the relaxation delay time of 5 s in ^1H-NMR experiments were chosen to assure the complete recovery of the magnetization and the accurate quantification. The Sodium Trimethylsilylpropionate (TSP) aqueous solution in the capillary was used as an external reference for the frequency and concentration calibration. […] Based on the resonance integral area of PAHs relative to that of TSP, we calculated their actual apparent concentrations. A total of 16 accumulations were used in 2D NOESY experiments, 1 s was chosen as mixing time. […] Due to the high growth rate of rotating frame overhauser effect (ROE) than that of NOE, ROESY experiments for Tween 80 systems were conducted instead of NOESY to avoid the possible spin diffusion effect in NOESY with the long mixing time. The parameters of the 2D ROESY experiments were the same as the NOESY experiments except that the mixing time was 0.2 s. MestReNova software (version 14.0.0, Mestrelab Research, Santiago de Compostella, Spain) was used to process all NMR data.

[2] = Solubilization of PAHs in SDS micellar solutions (1H-NMR quantification, MSR); details: for MSR (molar solubilization ratio): SDS 40-120 mM in D2O, 25 °C; for Synergistic/inhibitory level (RΔMSR), in words / solubility increase (RΔMSR) compared to single system: SDS
Excerpt: as §1, §2, §3
All NMR experiments were performed at 25 °C using a 500 MHz Agilent ProPulse NMR spectrometer (Agilent Technologies, Santa Clara, CA, USA) equipped with a 5 mm XYZ indirect detection probe and z-direction gradient coils with a maximum nominal gradient strength of 60 G cm^−1. The pulse excitation angle of 30 ° and the relaxation delay time of 5 s in ^1H-NMR experiments were chosen to assure the complete recovery of the magnetization and the accurate quantification. The Sodium Trimethylsilylpropionate (TSP) aqueous solution in the capillary was used as an external reference for the frequency and concentration calibration. […] Based on the resonance integral area of PAHs relative to that of TSP, we calculated their actual apparent concentrations. A total of 16 accumulations were used in 2D NOESY experiments, 1 s was chosen as mixing time.

[3] = water; cited from earlier work
[4] = binary Ant-Pyr system vs single
[5] = binary Phe-Ant system vs single
[6] = ternary Phe-Ant-Pyr system vs single
[7] = binary Phe-Pyr system vs single

In the case of `c1ccc2cc3ccccc3cc2c1` [Ant, anthracene], the “MSR (molar solubilization ratio)” value ([1]; binary Ant-Pyr system) was 0.0081, the “MSR (molar solubilization ratio)” value ([1]; binary Phe-Ant system) was 0.0084 and the “MSR (molar solubilization ratio)” value ([1]; single solubilization system) was 0.0094. The “MSR (molar solubilization ratio)” value ([1]; ternary Phe-Ant-Pyr system) was 0.0080, the “Synergistic/inhibitory level (RΔMSR), in words” value [1, 4] was “slight inhibition” and the “Synergistic/inhibitory level (RΔMSR), in words” value [1, 5] was “slight inhibition”. The “Synergistic/inhibitory level (RΔMSR), in words” value [1, 6] was “slight inhibition”, the “MSR (molar solubilization ratio)” value ([2]; binary Ant-Pyr system) was 0.0011 and the “MSR (molar solubilization ratio)” value ([2]; binary Phe-Ant system) was 0.0011. For the same molecule, the “MSR (molar solubilization ratio)” value ([2]; single solubilization system) was 0.0011, the “MSR (molar solubilization ratio)” value ([2]; ternary Phe-Ant-Pyr system) was 0.0013 and the “Synergistic/inhibitory level (RΔMSR), in words” value [2, 4] was “neither Phe nor Pyr contributes to the solubility increase”. The “Synergistic/inhibitory level (RΔMSR), in words” value [2, 5] was “neither Phe nor Pyr contributes to the solubility increase” and the “Synergistic/inhibitory level (RΔMSR), in words” value [2, 6] was “slight synergism”.
For `c1ccc2c(c1)ccc1ccccc12` [Phe, phenanthrene], the “MSR (molar solubilization ratio)” value ([1]; binary Phe-Ant system) was 0.0894, the “MSR (molar solubilization ratio)” value ([1]; binary Phe-Pyr system) was 0.1216 and the “MSR (molar solubilization ratio)” value ([1]; single solubilization system) was 0.1170. The “MSR (molar solubilization ratio)” value ([1]; ternary Phe-Ant-Pyr system) was 0.0694, the “Synergistic/inhibitory level (RΔMSR), in words” value [1, 5] was “inhibition” and the “Synergistic/inhibitory level (RΔMSR), in words” value [1, 7] was “synergism”. The “Synergistic/inhibitory level (RΔMSR), in words” value [1, 6] was “inhibition”, the “MSR (molar solubilization ratio)” value ([2]; binary Phe-Ant system) was 0.0095 and the “MSR (molar solubilization ratio)” value ([2]; binary Phe-Pyr system) was 0.0157. The “MSR (molar solubilization ratio)” value ([2]; single solubilization system) was 0.0089, the “MSR (molar solubilization ratio)” value ([2]; ternary Phe-Ant-Pyr system) was 0.0166 and the “Synergistic/inhibitory level (RΔMSR), in words” value [2, 5] was “synergism”. For the same molecule, the “solubility increase (RΔMSR) compared to single system” value ([2]; binary Phe-Pyr system) was 76.4%, the “Synergistic/inhibitory level (RΔMSR), in words” value [2, 7] was “synergism” and the “solubility increase (RΔMSR) compared to single system” value ([2]; ternary Phe-Ant-Pyr system) was 86.5%. For the same molecule, the “Synergistic/inhibitory level (RΔMSR), in words” value [2, 6] was “synergism” and the aqueous solubility [3] was 5.55 µM (≈ 0.989 µg/mL).
